Experimental data from the NIST ThermoML archive (doi:10.1016/j.jct.2012.09.013).
± gives the expanded uncertainty stated by the source.

How the values were obtained:
[1] = mn = molality of the nth substance listed, in mol/kg; details: 101 kPa, Liquid, m2 = 0; for viscosity: Capillary tube (Ostwald / Ubbelohde) method; for speed of sound: Linear variable-path acoustic interferometer; for mass density: Pycnometric method
[2] = 101.33 kPa, Liquid; for viscosity: Capillary tube (Ostwald / Ubbelohde) method; for speed of sound: Linear variable-path acoustic interferometer; for mass density: Pycnometric method

| viscosity ([2]; 303 K) | speed of sound ([2]; 303 K) | mass density ([2]; 303 K) | viscosity ([2]; 308 K) | speed of sound ([2]; 308 K) | mass density ([2]; 308 K) | viscosity ([2]; 313 K) | speed of sound ([2]; 313 K) | mass density ([2]; 313 K) | Structure (SMILES) | viscosity ([1]; 303 K) | speed of sound ([1]; 303 K) | mass density ([1]; 303 K) | viscosity ([1]; 308 K) | speed of sound ([1]; 308 K) | mass density ([1]; 308 K) | viscosity ([1]; 313 K) | speed of sound ([1]; 313 K) | mass density ([1]; 313 K) |
| --- | --- | --- | --- | --- | --- | --- | --- | --- | --- | --- | --- | --- | --- | --- | --- | --- | --- | --- |
| – | – | – | – | – | – | – | – | – | ClC(Cl)Cl [trichloromethane] + COc1ccc(C2(C)OC(CSc3nc4ccccc4c(=O)n3-c3ccccc3C)=NN2C(C)=O)cc1 | 0.6628 ± 0.13 mPa·s | 960 ± 4 m/s | 1475.3 ± 20 kg/m3 | 0.6279 ± 0.13 mPa·s | 950.8 ± 4 m/s | 1470.8 ± 20 kg/m3 | 0.5781 ± 0.12 mPa·s | 932.4 ± 3.9 m/s | 1465.8 ± 20 kg/m3 |
| – | – | – | – | – | – | – | – | – | ClC(Cl)Cl [trichloromethane] + CC(=O)N1N=C(CSc2nc3ccccc3c(=O)n2-c2ccccc2C)OC1(C)c1ccc(C)cc1 | 0.6628 ± 0.13 mPa·s | 960 ± 4 m/s | 1475.3 ± 20 kg/m3 | 0.6279 ± 0.13 mPa·s | 950.8 ± 4 m/s | 1470.8 ± 20 kg/m3 | 0.5781 ± 0.12 mPa·s | 932.4 ± 3.9 m/s | 1465.8 ± 20 kg/m3 |
| 0.6628 ± 0.13 mPa·s | 960 ± 4 m/s | 1475.3 ± 20 kg/m3 | 0.6279 ± 0.13 mPa·s | 950.8 ± 4 m/s | 1470.8 ± 20 kg/m3 | 0.5781 ± 0.12 mPa·s | 932.4 ± 3.9 m/s | 1465.8 ± 20 kg/m3 | ClC(Cl)Cl [trichloromethane] | – | – | – | – | – | – | – | – | – |
| 0.7588 ± 0.15 mPa·s | 1442 ± 6 m/s | 941.7 ± 0.7 kg/m3 | 0.7056 ± 0.14 mPa·s | 1432 ± 5.9 m/s | 937.2 ± 0.7 kg/m3 | 0.6353 ± 0.13 mPa·s | 1402 ± 5.8 m/s | 933.6 ± 0.6 kg/m3 | CN(C)C=O [dimethylformamide] | – | – | – | – | – | – | – | – | – |
| – | – | – | – | – | – | – | – | – | CN(C)C=O [dimethylformamide] + CC(=O)N1N=C(CSc2nc3ccccc3c(=O)n2-c2ccccc2C)OC1(C)c1ccc(C)cc1 | 0.7588 ± 0.15 mPa·s | 1442 ± 6 m/s | 941.7 ± 0.7 kg/m3 | 0.7056 ± 0.14 mPa·s | 1432 ± 5.9 m/s | 937.2 ± 0.7 kg/m3 | 0.6353 ± 0.13 mPa·s | 1402 ± 5.8 m/s | 933.6 ± 0.6 kg/m3 |
| – | – | – | – | – | – | – | – | – | CN(C)C=O [dimethylformamide] + COc1ccc(C2(C)OC(CSc3nc4ccccc4c(=O)n3-c3ccccc3C)=NN2C(C)=O)cc1 | 0.7588 ± 0.15 mPa·s | 1442 ± 6 m/s | 941.7 ± 0.7 kg/m3 | 0.7056 ± 0.14 mPa·s | 1432 ± 5.9 m/s | 937.2 ± 0.7 kg/m3 | 0.6353 ± 0.13 mPa·s | 1402 ± 5.8 m/s | 933.6 ± 0.6 kg/m3 |
